Data: publication PMC6295246 (Clinical cancer research : an official journal of the …, 2018)

Legend:
[1] = test system: relapsed or refractory neuroblastoma; assay: Best objective response; format: in vivo, human; details: pooled Phase 1/2/OS
[2] = test system: relapsed and refractory neuroblastoma; details: phase 1, with irinotecan and temozolomide; cited from earlier work
[3] = test system: relapsed or refractory neuroblastoma; assay: Progression-free survival; format: in vivo, human; details: pooled Phase 1/2/OS
[4] = Alisertib plasma pharmacokinetics; format: in vivo, human; details: pooled phase 1, phase 2 and OS cohorts
[5] = Alisertib Day 5 trough > median, N=21
[6] = Alisertib Day 5 trough ≤ median, N=21
[7] = Alisertib exposure > median, N=21
[8] = Alisertib exposure ≤ median, N=21

For COc1cc(Nc2ncc3c(n2)-c2ccc(Cl)cc2C(c2c(F)cccc2OC)=NC3)ccc1C(=O)O [alisertib], the “Objective Response” value ([1]; > 2 Prior regimens, N=17) was 24%, the “Objective Response” value ([1]; AURKA Codon 31 heterozygote, N=12) was 25% and the “Objective Response” value ([1]; AURKA Codon 31 wild type, N=27) was 19%. The “Objective Response” value ([1]; AURKA Codon 57 wild type, N=27) was 19%, the “Objective Response” value ([1]; Age < 8 years, N=28) was 18% and the “Objective Response” value ([1]; Age ≥ 4 years, N=47) was 26%. For the same molecule, the “Objective Response” value ([1]; Age ≥ 8 years, N=26) was 27%, the “Objective Response” value ([1]; Alisertib Cmax > median, N=21) was 19% and the “Objective Response” value ([1]; Alisertib Cmax ≤ median, N=21) was 24%. For the same molecule, the “Objective Response” value [1, 5] was 24%, the “Objective Response” value [1, 6] was 19% and the “Objective Response” value [1, 7] was 19%. For the same molecule, the “Objective Response” value [1, 8] was 24%, the “Objective Response” value ([1]; Aurora A protein +, N=12) was 17% and the “Objective Response” value ([1]; Aurora A protein −, N=18) was 22%. For the same molecule, the “Objective Response” value ([1]; Lin28B protein +, N=17) was 12%, the “Objective Response” value ([1]; MYCN non-amplified, N=33) was 27% and the “Objective Response” value ([1]; No prior irinotecan, N=36) was 28%. The “Objective Response” value ([1]; No prior temozolomide, N=37) was 27%, the “Objective Response” value ([1]; Prior temozolomide, N=17) was 12% and the “Objective Response” value ([1]; UGT1A1 genotype 6 / 6, N=17) was 35%. For the same molecule, the “Objective Response” value ([1]; UGT1A1 genotype 6 / 7, N=17) was 6%, the “Objective Response” value ([1]; UGT1A1 genotype 7 / 7, N=5) was 20% and the “Objective Response” value ([1]; ≤ 2 Prior regimens, N=37) was 22%. For the same molecule, the “estimated progression-free survival (PFS) rate at 2 years” value [2] was 52%, the response rate [2] was 31.8% and the “1-Yr PFS” value ([3]; > 2 Prior regimens, N=17) was 32%. The “1-Yr PFS” value ([3]; AURKA Codon 31 wild type, N=27) was 32%, the “1-Yr PFS” value ([3]; AURKA Codon 57 heterozygote, N=13) was 43% and the “1-Yr PFS” value ([3]; Age ≥ 4 years, N=47) was 42%. For the same molecule, the “1-Yr PFS” value ([3]; Age ≥ 8 years, N=26) was 47%, the “1-Yr PFS” value ([3]; Alisertib Cmax > median, N=21) was 28% and the “1-Yr PFS” value ([3]; Alisertib Cmax ≤ median, N=21) was 55%. For the same molecule, the “1-Yr PFS” value [3, 5] was 45%, the “1-Yr PFS” value [3, 6] was 33% and the “1-Yr PFS” value [3, 7] was 41%. The “1-Yr PFS” value [3, 8] was 38%, the “1-Yr PFS” value ([3]; Lin 28B protein −, N=13) was 34% and the “1-Yr PFS” value ([3]; MYCN amplified or Myc/Mycn +, N=18) was 12%. For the same molecule, the “1-Yr PFS” value ([3]; MYCN non-amplified, N=33) was 47%, the “1-Yr PFS” value ([3]; No prior irinotecan, N=36) was 43% and the “1-Yr PFS” value ([3]; No prior temozolomide, N=37) was 41%. The “1-Yr PFS” value ([3]; Prior temozolomide, N=17) was 32%, the “1-Yr PFS” value ([3]; UGT1A1 genotype 6 / 6, N=17) was 57% and the “1-Yr PFS” value ([3]; UGT1A1 genotype 6 / 7, N=17) was 26%. For the same molecule, the “1-Yr PFS” value ([3]; UGT1A1 genotype 7 / 7, N=5) was 40%, the “1-Yr PFS” value ([3]; ≤ 2 Prior regimens, N=37) was 42% and the “alisertib Day 5 trough in the first cycle, median” value [4] was 0.46 µM.
